For orientation: IC50 means the concentration that inhibits the measured activity by half.

A short description of series [1]: Stability of compound in DMEM medium by HPLC analysis. The format is physicochemical.
The test system of series [2] is U-87 MG. Nature of the series: Antiproliferative activity against human U87 cells incubated for 48 hrs by MTT assay. The format is functional, cell-based, U-87MG ATCC. (Formazan colour is commonly taken as a measure of viable cells.)
Series [3] concerns A549. Nature of the series: Antiproliferative activity against human A549 cells incubated for 48 hrs by MTT assay. The following applies: A549, 48 h. It counts as functional, cell-based.
Series [4] relates to U-87 MG. The series can be described thus: Antiproliferative activity against human U87 cells incubated for 48 hrs in presence of 4-(4-(3-(4-chloro-3-(trifluoromethyl)phenyl)ureido)phenoxy)-N-(prop-2-yn-1-yl)picolinamide by MTT assay. The format is functional, cell-based, U-87MG ATCC.
Series [5] relates to A549. The series can be described thus: Antiproliferative activity against human A549 cells incubated for 48 hrs in presence of 4-(4-(3-(4-chloro-3-(trifluoromethyl)phenyl)ureido)phenoxy)-N-(prop-2-yn-1-yl)picolinamide by MTT assay. The format is functional, cell-based. Conditions: A549, 48 h.
For series [6], the system named is HEK293. The series can be described thus: Cytotoxicity against HEK293 cells incubated for 48 hrs by MTT assay. The format is toxicity, cell-based. The following applies: human, hek293, 48 h.
Series [7] relates to HEK293. Nature of the series: Cytotoxicity against HEK293 cells at low concentration incubated for 48 hrs in presence of 4-(4-(3-(4-chloro-3-(trifluoromethyl)phenyl)ureido)phenoxy)-N-(prop-2-yn-1-yl)picolinamide by MTT assay. It counts as toxicity, cell-based. The following applies: human, hek293, 48 h.
The test system of series [8] is HEK293. Nature of the series: Cytotoxicity against HEK293 cells at high concentration incubated for 48 hrs in presence of 4-(4-(3-(4-chloro-3-(trifluoromethyl)phenyl)ureido)phenoxy)-N-(prop-2-yn-1-yl)picolinamide by MTT assay. It counts as toxicity, cell-based. The following applies: human, hek293, 48 h.
The target of series [9] is Vascular endothelial growth factor receptor 2 (Homo sapiens) (UniProt P35968). The series can be described thus: Induction of VEGFR2 degradation in human U87 cells upto 10 uM incubated for 48 hrs by Western blot analysis. The format is cell-based.
Vascular endothelial growth factor receptor 2 (Homo sapiens), sequence (P35968 whole entry): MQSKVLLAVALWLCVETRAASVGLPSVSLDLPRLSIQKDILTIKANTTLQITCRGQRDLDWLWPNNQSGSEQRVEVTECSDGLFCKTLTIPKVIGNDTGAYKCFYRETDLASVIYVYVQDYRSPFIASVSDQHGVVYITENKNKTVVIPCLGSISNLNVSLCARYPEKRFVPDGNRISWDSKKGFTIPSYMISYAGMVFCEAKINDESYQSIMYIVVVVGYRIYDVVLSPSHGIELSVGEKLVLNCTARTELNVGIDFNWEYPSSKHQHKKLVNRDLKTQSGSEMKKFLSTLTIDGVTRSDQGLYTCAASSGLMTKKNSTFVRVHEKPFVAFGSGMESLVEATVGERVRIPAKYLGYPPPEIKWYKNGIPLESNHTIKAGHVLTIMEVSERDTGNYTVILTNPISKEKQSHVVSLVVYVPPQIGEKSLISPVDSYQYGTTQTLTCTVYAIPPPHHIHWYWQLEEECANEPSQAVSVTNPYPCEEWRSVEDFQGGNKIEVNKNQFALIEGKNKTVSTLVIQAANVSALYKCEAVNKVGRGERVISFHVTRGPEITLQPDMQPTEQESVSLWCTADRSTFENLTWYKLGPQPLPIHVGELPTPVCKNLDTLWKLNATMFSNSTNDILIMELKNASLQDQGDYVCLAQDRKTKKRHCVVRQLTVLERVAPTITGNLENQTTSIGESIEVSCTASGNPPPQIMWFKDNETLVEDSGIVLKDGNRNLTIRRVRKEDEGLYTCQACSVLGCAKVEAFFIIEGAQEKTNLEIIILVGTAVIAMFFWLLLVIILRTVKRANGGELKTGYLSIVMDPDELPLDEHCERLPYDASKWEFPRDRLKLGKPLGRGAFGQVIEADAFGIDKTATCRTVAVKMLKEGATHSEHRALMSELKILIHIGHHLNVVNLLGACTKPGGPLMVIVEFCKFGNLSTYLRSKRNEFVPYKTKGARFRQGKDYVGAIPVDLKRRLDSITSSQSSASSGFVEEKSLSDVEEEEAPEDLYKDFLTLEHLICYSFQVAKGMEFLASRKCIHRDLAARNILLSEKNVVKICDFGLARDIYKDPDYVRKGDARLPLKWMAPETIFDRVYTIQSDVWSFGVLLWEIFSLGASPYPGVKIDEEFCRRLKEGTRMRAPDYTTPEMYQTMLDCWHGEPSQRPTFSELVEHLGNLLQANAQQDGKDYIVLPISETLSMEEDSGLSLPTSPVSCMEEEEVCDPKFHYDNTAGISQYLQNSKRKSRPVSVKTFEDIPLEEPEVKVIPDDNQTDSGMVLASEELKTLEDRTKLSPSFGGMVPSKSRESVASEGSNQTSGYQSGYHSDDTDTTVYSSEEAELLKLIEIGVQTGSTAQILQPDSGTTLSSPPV
Series [10] has as its target Platelet-derived growth factor receptor beta (Homo sapiens) (UniProt P09619). The series can be described thus: Induction of PDGFR-beta degradation in human U87 cells upto 10 uM incubated for 48 hrs by Western blot analysis. The format is cell-based. (In general: Immunoblotting shows a protein as a band on a membrane.)
Series [11] addresses T1, Ephrin type-B receptor 4 (Homo sapiens) (UniProt P54760).
T1 sequence (whole entry): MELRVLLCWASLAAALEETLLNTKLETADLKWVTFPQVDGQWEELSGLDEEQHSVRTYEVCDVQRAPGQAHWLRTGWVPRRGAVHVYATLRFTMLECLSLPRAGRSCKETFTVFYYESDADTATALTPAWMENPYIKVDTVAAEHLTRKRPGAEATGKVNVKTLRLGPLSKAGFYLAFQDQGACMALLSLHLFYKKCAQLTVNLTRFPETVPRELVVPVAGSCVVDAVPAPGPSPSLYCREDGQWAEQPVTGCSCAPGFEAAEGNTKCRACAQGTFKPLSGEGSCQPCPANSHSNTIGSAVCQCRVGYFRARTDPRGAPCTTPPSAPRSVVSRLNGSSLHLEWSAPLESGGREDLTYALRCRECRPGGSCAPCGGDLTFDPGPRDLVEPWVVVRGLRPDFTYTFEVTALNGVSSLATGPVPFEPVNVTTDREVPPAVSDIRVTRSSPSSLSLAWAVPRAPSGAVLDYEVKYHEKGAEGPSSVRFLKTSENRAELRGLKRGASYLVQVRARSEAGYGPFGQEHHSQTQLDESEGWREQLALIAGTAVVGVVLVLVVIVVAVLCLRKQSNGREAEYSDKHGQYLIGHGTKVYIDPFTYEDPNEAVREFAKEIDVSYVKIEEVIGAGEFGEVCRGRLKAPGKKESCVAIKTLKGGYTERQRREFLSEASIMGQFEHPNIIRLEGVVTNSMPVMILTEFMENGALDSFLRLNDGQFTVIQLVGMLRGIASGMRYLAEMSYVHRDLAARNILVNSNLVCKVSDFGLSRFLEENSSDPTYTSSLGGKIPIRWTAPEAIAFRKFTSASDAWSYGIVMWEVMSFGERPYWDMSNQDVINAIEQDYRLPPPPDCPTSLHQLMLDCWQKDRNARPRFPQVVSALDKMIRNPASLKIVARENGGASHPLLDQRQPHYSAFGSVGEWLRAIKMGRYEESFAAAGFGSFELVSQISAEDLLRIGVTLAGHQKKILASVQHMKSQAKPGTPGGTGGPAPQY
The series can be described thus: Induction of EphB4 degradation in human U87 cells upto 10 uM incubated for 48 hrs by Western blot analysis. It counts as cell-based.

Series [12] has as its target Serine/threonine-protein kinase B-raf (Homo sapiens) (UniProt P15056). Nature of the series: Induction of BRAF degradation in human U87 cells upto 10 uM incubated for 48 hrs by Western blot analysis. It counts as cell-based.
Series [13] concerns the target Vascular endothelial growth factor receptor 2 (Homo sapiens) (UniProt P35968). The series can be described thus: Induction of VEGFR2 degradation in human U87 cells at 2 uM incubated for 48 hrs in presence of 4-(4-(3-(4-chloro-3-(trifluoromethyl)phenyl)ureido)phenoxy)-N-(prop-2-yn-1-yl)picolinamide by Western blot analysis. The format is cell-based.
For series [14], the target named is T1, Ephrin type-B receptor 4 (Homo sapiens). The series can be described thus: Induction of EphB4 degradation in human U87 cells at 2 uM incubated for 48 hrs in presence of 4-(4-(3-(4-chloro-3-(trifluoromethyl)phenyl)ureido)phenoxy)-N-(prop-2-yn-1-yl)picolinamide by Western blot analysis. It counts as cell-based.
Series [15] deals with U-87 MG. The series can be described thus: Induction of cell cycle arrest at S phase in human U87 cells incubated for 48 hrs in presence of 4-(4-(3-(4-chloro-3-(trifluoromethyl)phenyl)ureido)phenoxy)-N-(prop-2-yn-1-yl)picolinamide by PI staining based flow cytometry. It counts as functional. The following applies: U-87MG ATCC, dose 0.1-1 µM. On the technique in general: In flow cytometry, cells or beads pass a laser one at a time.

In series [16] the test system is HEK293. Nature of the series: Cytotoxicity against HEK293 cells at low concentration incubated for 48 hrs by MTT assay. It counts as toxicity, cell-based. Conditions: human, hek293, 48 h.
In series [17] the test system is HEK293. The series can be described thus: Cytotoxicity against HEK293 cells at high concentration incubated for 48 hrs by MTT assay. It counts as toxicity, cell-based. Conditions: human, hek293, 48 h.

Molecules are shown by their SMILES. Activity calls are given as the source filed them. No cut-off for these calls is given here.

Platelet-derived growth factor receptor beta (Homo sapiens), sequence (P09619 whole entry): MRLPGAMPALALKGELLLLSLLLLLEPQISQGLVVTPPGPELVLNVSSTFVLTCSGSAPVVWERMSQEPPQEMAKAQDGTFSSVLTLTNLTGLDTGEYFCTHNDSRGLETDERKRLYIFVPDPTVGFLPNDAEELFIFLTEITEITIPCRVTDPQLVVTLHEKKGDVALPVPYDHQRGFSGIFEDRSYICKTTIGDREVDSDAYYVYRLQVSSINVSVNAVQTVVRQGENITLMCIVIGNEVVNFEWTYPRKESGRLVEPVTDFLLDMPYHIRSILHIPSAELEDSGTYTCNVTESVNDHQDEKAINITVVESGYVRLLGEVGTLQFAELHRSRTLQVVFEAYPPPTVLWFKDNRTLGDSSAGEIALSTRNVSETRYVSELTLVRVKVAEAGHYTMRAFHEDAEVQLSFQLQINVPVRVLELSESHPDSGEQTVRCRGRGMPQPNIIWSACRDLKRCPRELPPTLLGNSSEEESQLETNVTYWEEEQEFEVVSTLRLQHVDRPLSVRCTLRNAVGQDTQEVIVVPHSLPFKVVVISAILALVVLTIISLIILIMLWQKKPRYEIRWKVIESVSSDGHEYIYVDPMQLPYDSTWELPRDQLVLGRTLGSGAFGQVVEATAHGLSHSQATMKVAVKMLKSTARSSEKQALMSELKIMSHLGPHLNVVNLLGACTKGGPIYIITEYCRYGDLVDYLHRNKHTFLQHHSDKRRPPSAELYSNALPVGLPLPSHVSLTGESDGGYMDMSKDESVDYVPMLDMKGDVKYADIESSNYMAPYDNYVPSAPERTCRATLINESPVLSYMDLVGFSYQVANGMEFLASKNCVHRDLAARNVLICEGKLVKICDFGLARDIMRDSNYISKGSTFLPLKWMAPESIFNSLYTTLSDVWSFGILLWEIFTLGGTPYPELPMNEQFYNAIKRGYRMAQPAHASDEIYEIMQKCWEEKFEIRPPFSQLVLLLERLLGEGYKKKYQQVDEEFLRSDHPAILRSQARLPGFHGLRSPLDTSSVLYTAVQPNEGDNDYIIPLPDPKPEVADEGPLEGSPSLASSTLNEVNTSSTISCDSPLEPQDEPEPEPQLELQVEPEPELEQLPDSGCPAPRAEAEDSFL
Serine/threonine-protein kinase B-raf (Homo sapiens), sequence (P15056 whole entry): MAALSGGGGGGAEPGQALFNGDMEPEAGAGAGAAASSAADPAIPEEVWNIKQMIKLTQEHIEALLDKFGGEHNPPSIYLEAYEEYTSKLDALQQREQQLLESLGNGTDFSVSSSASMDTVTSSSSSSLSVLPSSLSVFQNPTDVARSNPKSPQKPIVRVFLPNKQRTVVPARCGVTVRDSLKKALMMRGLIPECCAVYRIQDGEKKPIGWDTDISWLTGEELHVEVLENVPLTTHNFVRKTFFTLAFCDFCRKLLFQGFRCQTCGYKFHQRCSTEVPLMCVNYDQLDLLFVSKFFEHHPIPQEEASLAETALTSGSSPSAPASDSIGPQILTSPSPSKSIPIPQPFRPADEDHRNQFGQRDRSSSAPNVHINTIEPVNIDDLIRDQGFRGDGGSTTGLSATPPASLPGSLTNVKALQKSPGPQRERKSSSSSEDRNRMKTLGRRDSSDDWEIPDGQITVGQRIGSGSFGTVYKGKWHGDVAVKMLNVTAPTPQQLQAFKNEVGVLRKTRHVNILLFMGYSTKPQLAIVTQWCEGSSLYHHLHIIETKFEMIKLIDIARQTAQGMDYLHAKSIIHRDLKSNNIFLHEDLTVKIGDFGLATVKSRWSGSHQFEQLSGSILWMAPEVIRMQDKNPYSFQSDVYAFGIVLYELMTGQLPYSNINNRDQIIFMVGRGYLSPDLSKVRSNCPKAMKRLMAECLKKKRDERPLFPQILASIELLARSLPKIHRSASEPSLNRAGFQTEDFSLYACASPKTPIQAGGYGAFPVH

Regarding `Cc1ncsc1-c1ccc(CNC(=O)[C@@H]2C[C@@H](O)CN2C(=O)[C@@H](NC(=O)CCCCN=[N+]=[N-])C(C)(C)C)cc1`, the Stability result in series [1] is recorded as “Stable”. The IC50 is > 50 µM in series [2], > 50 µM in series [3], 16 µM in series [4] and 1.06 µM in [5]. Further, the Activity result is “Non-Toxic” in series [6], “Non-Toxic” in series [7], “Toxic” in [8] and “Dose-Dependent Effect” in series [15]. Moreover, the result in series [9], in series [10], in series [11] and in [12] was inactive. The outcome in series [13] and in [14] was Active.
Turning to `CNC(=O)c1cc(Oc2ccc(NC(=O)Nc3ccc(Cl)c(C(F)(F)F)c3)cc2)ccn1` [SORAFENIB], the results for the IC50 in [2] and in [3] were 1.28 µM and 8.26 µM, respectively. Further, the Activity entry is reported as “Non-Toxic” in series [16] and “Toxic” in series [17].
As to `Nc1cccc2c1C(=O)N(C1CCC(=O)NC1=O)C2=O` (stereo not given) [POMALIDOMIDE], in series [1], the Stability result is listed as “Unstable”.

These data come from ChEMBL document CHEMBL5620355, “Discovery of intracellular self-assembly protein degraders driven by tumor-specific activatable bioorthogonal reaction” (Eur J Med Chem, 2023).
